Test results taken from ChEMBL document CHEMBL1151548 (1995).

Test system: Mus musculus
Experiment: Antimalarial activity against Plasmodium berghei K173 in mice (Mus musculus) by peroral administration using peanut oil
Assay type: functional

Structure (SMILES) | SD50 [mg/kg/day] | SD90 [mg/kg/day]
C[C@@H]1CC[C@H]2[C@@H](C)C(Nc3cccc(Cl)c3)O[C@@H]3O[C@@]4(C)CC[C@@H]1[C@]32OO4 (stereo partly specified) | 1.62 | 4.8
C[C@@H]1CC[C@H]2[C@@H](C)C(Nc3cccc(C(=O)O)c3)O[C@@H]3O[C@@]4(C)CC[C@@H]1[C@]32OO4 (stereo partly specified) | 2.76 | 8.23
COc1ccc(NC2O[C@@H]3O[C@@]4(C)CC[C@H]5[C@H](C)CC[C@@H]([C@H]2C)[C@@]35OO4)cc1 (stereo partly specified) | 3.5 | 11.23
C[C@@H]1CC[C@H]2[C@@H](C)C(Nc3ccc(Br)cc3)O[C@@H]3O[C@@]4(C)CC[C@@H]1[C@]32OO4 (stereo partly specified) | 2.7 | 9.1
C[C@@H]1CC[C@H]2[C@@H](C)C(Nc3ccc(Cl)cc3)O[C@@H]3O[C@@]4(C)CC[C@@H]1[C@]32OO4 (stereo partly specified) | 1.77 | 4.5
Cc1ccc(NC2O[C@@H]3O[C@@]4(C)CC[C@H]5[C@H](C)CC[C@@H]([C@H]2C)[C@@]35OO4)cc1 (stereo partly specified) | 2.77 | 6.08
C[C@@H]1CC[C@H]2[C@@H](C)C(Nc3ccc(I)cc3)O[C@@H]3O[C@@]4(C)CC[C@@H]1[C@]32OO4 (stereo partly specified) | 4.56 | 11.03
C[C@@H]1CC[C@H]2[C@@H](C)C(Nc3ccccc3)O[C@@H]3O[C@@]4(C)CC[C@@H]1[C@]32OO4 (stereo partly specified) | 2.63 | 7.3
C[C@@H]1CC[C@H]2[C@@H](C)C(Nc3cccc(Br)c3)O[C@@H]3O[C@@]4(C)CC[C@@H]1[C@]32OO4 (stereo partly specified) | 3.4 | 5.38
C[C@@H]1CC[C@H]2[C@@H](C)C(Nc3ccc(C(=O)O)cc3)O[C@@H]3O[C@@]4(C)CC[C@@H]1[C@]32OO4 (stereo partly specified) | 1.36 | 6.88
C[C@@H]1CC[C@H]2[C@@H](C)C(=O)O[C@@H]3O[C@@]4(C)CC[C@@H]1[C@]32OO4 [ARTEMISININ] | 5.13 | –
